# Data: PMC4186449 (Pharmacology Research & Perspectives, 2014)
# Target: T1, LdTOPII (Leishmania donovani, UniProt Q9XZN0)
# T1 sequence (Q9XZN0 1-1236): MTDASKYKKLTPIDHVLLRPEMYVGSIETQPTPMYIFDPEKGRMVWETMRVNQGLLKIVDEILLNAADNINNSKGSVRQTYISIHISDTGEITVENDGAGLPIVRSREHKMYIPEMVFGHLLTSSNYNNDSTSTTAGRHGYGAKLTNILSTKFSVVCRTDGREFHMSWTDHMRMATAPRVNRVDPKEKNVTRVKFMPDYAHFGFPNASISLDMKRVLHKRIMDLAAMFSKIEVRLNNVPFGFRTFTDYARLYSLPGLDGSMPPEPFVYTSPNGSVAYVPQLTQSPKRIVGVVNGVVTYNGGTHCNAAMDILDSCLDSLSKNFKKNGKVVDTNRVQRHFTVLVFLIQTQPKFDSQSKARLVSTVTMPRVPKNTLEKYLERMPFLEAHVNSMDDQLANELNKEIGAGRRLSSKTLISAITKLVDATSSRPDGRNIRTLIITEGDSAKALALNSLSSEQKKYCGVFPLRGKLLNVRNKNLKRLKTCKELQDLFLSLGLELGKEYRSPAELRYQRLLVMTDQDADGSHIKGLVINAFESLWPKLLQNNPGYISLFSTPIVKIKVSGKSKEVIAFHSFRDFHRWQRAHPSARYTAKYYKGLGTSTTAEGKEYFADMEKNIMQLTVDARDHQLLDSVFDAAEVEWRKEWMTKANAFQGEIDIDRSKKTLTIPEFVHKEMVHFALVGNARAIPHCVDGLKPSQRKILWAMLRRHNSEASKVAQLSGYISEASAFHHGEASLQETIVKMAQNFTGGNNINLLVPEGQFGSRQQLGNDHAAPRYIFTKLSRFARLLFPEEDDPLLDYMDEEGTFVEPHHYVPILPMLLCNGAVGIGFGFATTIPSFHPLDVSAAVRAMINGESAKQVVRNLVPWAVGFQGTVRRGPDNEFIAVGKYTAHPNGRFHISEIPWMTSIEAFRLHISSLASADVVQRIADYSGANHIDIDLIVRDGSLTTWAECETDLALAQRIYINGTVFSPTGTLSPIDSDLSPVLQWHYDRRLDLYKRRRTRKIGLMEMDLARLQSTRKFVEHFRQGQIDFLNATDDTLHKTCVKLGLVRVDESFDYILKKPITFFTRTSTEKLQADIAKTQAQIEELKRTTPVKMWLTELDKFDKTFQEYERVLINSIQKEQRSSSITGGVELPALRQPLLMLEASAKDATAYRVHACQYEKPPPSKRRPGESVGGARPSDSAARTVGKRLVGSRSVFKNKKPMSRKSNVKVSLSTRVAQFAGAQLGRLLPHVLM
# Conditions: 2 mmol/L ATP, 30°C
compound,measurement,value
Nc1ncnc2c1ncn2[C@@H]1O[C@H](COP(=O)(O)OP(=O)(O)OP(=O)(O)O)[C@@H](O)[C@H]1O [ATP],pyruvate kinase/lactate dehydrogenase coupled ATPase assay,JVPH3 and JVPH4 did not interfere with LdTOPII-mediated ATP hydrolysis
